Here are results for two molecules from patent US5869499A, “Benzyloxyquinuclidines as substance P antagonists” (Pfizer Inc, priority 1993, dated 1999).

The assay concerns plasma protein extravasation in the ureter in response to capsaicin. The assay can be described thus: Capsaicin-induced plasma extravasation test. Format: in vivo, male Hartley guinea pigs. Conditions: dosed orally 1 h before capsaicin challenge, guinea pig ureter. The procedure:
In this test, antiinflammatory activity is determined as the percent inhibition of plasma protein extravasation in the ureter of male Hartley quinea pigs (weighing 300-350 g) in response to the intraperitoneal injection of capsaicin into anesthetized animals. The compounds of the present invention are dissolved in 0.1% methyl cellulose/water and dosed orally 1 h before capsaicin challenge. Evans Blue dye (30 mg/kg) is administered intravenously 5 min before capsaicin challenge. The animals are killed 10 min after capsaicin injection and both right and left ureters are removed. The Evans Blue dye is extracted and determined […]. In the above tests, compounds are considered active if the difference in response between the drug-treated animals and a control group receiving the vehicle alone is statistically significant.

The structures appear in SMILES notation. Where a name gives a salt, the structure may show the parent alone.

On to `O=C(O)[C@@H]1CN2CC[C@H]1[C@H](OCc1cc(C(F)(F)F)cc(C(F)(F)F)c1)[C@@H]2C(c1ccccc1)c1ccccc1` [Example 2, (3S,4R,5S,6S)-3,5-bis(trifluoromethyl)benzyoxy)-6-diphenylmethyl-5-(-1-azabicyclo[2.2.2]octane-3-carboxylic acid hydrochloride], for which the “ED50 relative to ED50 of non-substituted compound (x)” value is “more than 100 times lower”.

Regarding `FC(F)(F)c1cc(CO[C@H]2C3CCN(CC3)[C@H]2C(c2ccccc2)c2ccccc2)cc(C(F)(F)F)c1` [compound (x)], where the note is “Cavia porcellus, po”, the 50% effect level (ED50) was put at a dose of 2.4 mg/kg.

The ED50 is the midpoint of the dose-response relation. A higher ED50 goes with a need for a large dose.
